In patent US12084522B2, “Peptides, combination of peptides, and cell based medicaments for use in immunotherapy against urinary bladder cancer and other cancers” (Immatics Biotechnologies GmbH, priority 2016, dated 2024):

Assays:
[1] = test system: CD8+ T cells from healthy HLA-A*02 donors; assay: In vitro immunogenicity: priming of CD8+ T cells with aAPCs loaded with peptide/MHC complexes and anti-CD28, pMHC multimer readout; type: cell-based, human; settings: for Wells positive [%]: HLA-A*02 restricted peptides, positive wells among evaluable, Table 10B; for Wells (in vitro immunogenicity, positive wells): HLA class I peptides, Table 10A
From the text: In order to obtain information regarding the immunogenicity of the TUMAPs of the present invention, the inventors performed investigations using an in vitro T-cell priming assay based on repeated stimulations of CD8+ T cells with artificial antigen presenting cells (aAPCs) loaded with peptide/MHC complexes and anti-CD28 antibody.
In order to perform in vitro stimulations by artificial antigen presenting cells loaded with peptide-MHC complex (pMHC) and anti-CD28 antibody, the inventors first isolated CD8+ T cells from fresh HLA-A*02 leukapheresis products via positive selection using CD8 microbeads (Miltenyi Biotec, Bergisch-Gladbach, Germany) of healthy donors obtained from the University clinics Mannheim, Germany, after informed consent.
PBMCs and isolated CD8+ lymphocytes were incubated in T-cell medium (TCM) until use consisting of RPMI-Glutamax (Invitrogen, Karlsruhe, Germany) supplemented with 10% heat inactivated human AB serum (PAN-Biotech, Aidenbach, Germany), 100 U/ml Penicillin/100 μg/ml Streptomycin (Cambrex, Cologne, Germany), 1 mM sodium pyruvate (CC Pro, Oberdorla, Germany), 20 μg/ml Gentamycin (Cambrex). 2.5 ng/ml IL-7 (PromoCell, Heidelberg, Germany) and 10 U/ml IL-2 (Novartis Pharma, Nürnberg, Germany) were also added to the TCM at this step.
Generation of pMHC/anti-CD28 coated beads, T-cell stimulations and readout was performed in a highly defined in vitro system using four different pMHC molecules per stimulation condition and 8 different pMHC molecules per readout condition.
The purified co-stimulatory mouse IgG2a anti human CD28 Ab 9.3 (Jung et al., 1987) was chemically biotinylated using Sulfo-N-hydroxysuccinimidobiotin as recommended by the manufacturer (Perbio, Bonn, Germany). Beads used were 5.6 μm diameter streptavidin coated polystyrene particles (Bangs Laboratories, Illinois, USA).
800.000 beads/200 μl were coated in 96-well plates in the presence of 4×12.5 ng different biotin-pMHC, washed and 600 ng biotin anti-CD28 were added subsequently in a volume of 200 μl. Stimulations were initiated in 96-well plates by co-incubating 1×10^6 CD8+ T cells with 2×10^5 washed coated beads in 200 μl TCM supplemented with 5 ng/ml IL-12 (PromoCell) for 3 days at 37° C. Half of the medium was then exchanged by fresh TCM supplemented with 80 U/ml IL-2 and incubating was continued for 4 days at 37° C. This stimulation cycle was performed for a total of three times. For the pMHC multimer readout using 8 different pMHC molecules per condition, a two-dimensional combinatorial coding approach was used as previously described (Andersen et al., 2012) with minor modifications encompassing coupling to 5 different fluorochromes. Finally, multimeric analyses were performed by staining the cells with Live/dead near IR dye (Invitrogen, Karlsruhe, Germany), CD8-FITC antibody clone SK1 (BD, Heidelberg, Germany) and fluorescent pMHC multimers. For analysis, a BD LSRII SORP cytometer equipped with appropriate lasers and filters was used. Peptide specific cells were calculated as percentage of total CD8+ cells. Evaluation of multimeric analysis was done using the FlowJo software (Tree Star, Oregon, USA). In vitro priming of specific multimer+CD8+ lymphocytes was detected by comparing to negative control stimulations.

[2] = target: HLA-A*02:01 (Homo sapiens, UniProt P04439, D140Y/D185E/D98H/E176V/E277Q/G131W/G231S/I119V/I121R/I166T/I218V/L300P/L318F/N151K/N90K/P208A/P217A/Q86G/Q94H/R138H/R169H/T345S); assay: MHC binding assay (UV-ligand exchange, β2m ELISA, peptide exchange yield); settings: binding to HLA-A*02:01 ranged by peptide exchange yield (UV-ligand exchange, β2m ELISA)
From the text: Candidate peptides for T cell based therapies according to the present invention were further tested for their MHC binding capacity (affinity). The individual peptide-MHC complexes were produced by UV-ligand exchange, where a UV-sensitive peptide is cleaved upon UV-irradiation, and exchanged with the peptide of interest as analyzed. Only peptide candidates that can effectively bind and stabilize the peptide-receptive MHC molecules prevent dissociation of the MHC complexes. To determine the yield of the exchange reaction, an ELISA was performed based on the detection of the light chain (β2 m) of stabilized MHC complexes. The assay was performed as generally described in Rodenko et al. (Rodenko et al., 2006).
96 well MAXISorp plates (NUNC) were coated over night with 2 μg/ml streptavidin in PBS at room temperature, washed 4× and blocked forth at 37° C. in 2% BSA containing blocking buffer. Refolded HLA-A*02:01/MLA-001 monomers served as standards, covering the range of 15-500 ng/ml. Peptide-MHC monomers of the UV-exchange reaction were diluted 100 fold in blocking buffer. Samples were incubated for 1 h at 37° C., washed four times, incubated with 2 ug/ml HRP conjugated anti-β2 m for 1 h at 37° C., washed again and detected with TMB solution that is stopped with […]. Absorption was measured at 450 nm. Candidate peptides that show a high exchange yield (preferably higher than 50%, most preferred higher than 75%) are generally preferred for a generation and production of antibodies or fragments thereof, and/or T cell receptors or fragments thereof, as they show sufficient avidity to the MHC molecules and prevent dissociation of the MHC complexes.

Row | Peptide exchange [2] | Substance | Wells positive [%] [1] | Wells (in vitro immunogenicity, positive wells) [1]
1 | ++++ (>75% = ++++) | 4 (SLDVVNLLV; listed as Homo sapiens) [compound 4] | + (<20% = +) | –
2 | ++++ (>75% = ++++) | 5 (IQDPVIFYV; listed as Homo sapiens) [compound 5] | +++ (50%-69% = +++) | –
3 | +++ (>50 = +++) | 6 (SIVDFLITA; listed as Homo sapiens) [compound 6] | + (<20% = +) | –
4 | ++++ (>75% = ++++) | 9 (SLVDARFQL; listed as Homo sapiens) [compound 9] | + (<20% = +) | –
5 | ++++ (>75% = ++++) | 10 (GLWHGMFANV; listed as Homo sapiens) [compound 10] | ++ (20%-49% = ++) | –
6 | +++ (>50 = +++) | 14 (GLAGPVRGV; listed as Homo sapiens) [compound 14] | + (<20% = +) | –
7 | +++ (>50 = +++) | 15 (YLAPENGYLMEA; listed as Homo sapiens) [compound 15] | + (<20% = +) | –
8 | +++ (>50 = +++) | 16 (ILGPQGNTI; listed as Homo sapiens) [compound 16] | + (<20% = +) | –
9 | +++ (>50 = +++) | 17 (RLSQLEGVNV; listed as Homo sapiens) [compound 17] | + (<20% = +) | –
10 | ++++ (>75% = ++++) | 23 (YTLSKTEFL; listed as Homo sapiens) [compound 23] | + (<20% = +) | –
11 | ++++ (>75% = ++++) | 24 (SLLGGITVV; listed as Homo sapiens) [compound 24] | ++ (20%-49% = ++) | –
12 | +++ (>50 = +++) | 27 (STTNGGILTV; listed as Homo sapiens) [compound 27] | + (<20% = +) | –
13 | +++ (>50 = +++) | 29 (ALSSPPPTV; listed as Homo sapiens) [compound 29] | + (<20% = +) | –
14 | +++ (>50 = +++) | 138 (YLTNEGIQYL; listed as Homo sapiens) [compound 138] | – | –
15 | +++ (>50 = +++) | 139 (LLYPTEITV; listed as Homo sapiens) [compound 139] | – | –
16 | ++++ (>75% = ++++) | 140 (ALLDGRVQL; listed as Homo sapiens) [compound 140] | – | –
17 | ++++ (>75% = ++++) | 141 (SMFGAGLTV; listed as Homo sapiens) [compound 141] | – | –
18 | +++ (>50 = +++) | 142 (FLGENISNFL; listed as Homo sapiens) [compound 142] | – | –
19 | +++ (>50 = +++) | 143 (TLVTGLASV; listed as Homo sapiens) [compound 143] | – | –
20 | +++ (>50 = +++) | 144 (YLAGEAPTL; listed as Homo sapiens) [compound 144] | – | –
21 | +++ (>50 = +++) | 145 (ALYPGQLVQL; listed as Homo sapiens) [compound 145] | – | –
22 | +++ (>50 = +++) | 147 (QMLELITRL; listed as Homo sapiens) [compound 147] | – | –
23 | – | 155 (VLSSGLTAA; listed as Homo sapiens) [compound 155] | – | + (<20% = +)
24 | – | 156 (KLVEFDFLGA; listed as Homo sapiens) [compound 156] | – | + (<20% = +)

Row | Peptide exchange [2] | Substance | Wells positive [%] [1] | Wells (in vitro immunogenicity, positive wells) [1]
25 | – | 159 (SLIEDLILL; listed as Homo sapiens) [compound 159] | – | + (<20% = +)
26 | – | 160 (SLLGGNIRL; listed as Homo sapiens) [compound 160] | – | ++ (20%-49% = ++)
27 | – | 162 (TLLAAEFLKQV; listed as Homo sapiens) [compound 162] | – | + (<20% = +)
28 | – | 164 (ALADLTGTVV; listed as Homo sapiens) [compound 164] | – | + (<20% = +)
29 | – | 167 (SLWGGDVVL; listed as Homo sapiens) [compound 167] | – | ++ (20%-49% = ++)
30 | – | 168 (LTAPPEALLMV; listed as Homo sapiens) [compound 168] | – | + (<20% = +)
31 | – | 170 (GLIEIISNA; listed as Homo sapiens) [compound 170] | – | + (<20% = +)
32 | – | 172 (LLYGHTVTV; listed as Homo sapiens) [compound 172] | – | ++ (20%-49% = ++)
33 | – | 173 (FVFSFPVSV; listed as Homo sapiens) [compound 173] | – | ++ (20%-49% = ++)
34 | – | 176 (SMSGYDQVL; listed as Homo sapiens) [compound 176] | – | + (<20% = +)
35 | – | 177 (NLLQVLEKV; listed as Homo sapiens) [compound 177] | – | + (<20% = +)
36 | – | 178 (ALNEEAGRLLL; listed as Homo sapiens) [compound 178] | – | + (<20% = +)
37 | – | 182 (YLAPFLRNV; listed as Homo sapiens) [compound 182] | – | ++ (20%-49% = ++)
38 | – | 184 (LMTKEISSV; listed as Homo sapiens) [compound 184] | – | + (<20% = +)
39 | – | 186 (VLYPHEPTAV; listed as Homo sapiens) [compound 186] | – | + (<20% = +)
40 | – | 189 (ALLRTVVSV; listed as Homo sapiens) [compound 189] | – | + (<20% = +)
41 | – | 192 (ALNPADITV; listed as Homo sapiens) [compound 192] | – | ++ (20%-49% = ++)
42 | – | 193 (ALVQDLAKA; listed as Homo sapiens) [compound 193] | – | ++ (20%-49% = ++)
43 | – | 198 (NLIEKSIYL; listed as Homo sapiens) [compound 198] | – | + (<20% = +)
44 | – | 200 (YLNVQVKEL; listed as Homo sapiens) [compound 200] | – | + (<20% = +)
45 | – | 203 (FLIPYAIML; listed as Homo sapiens) [compound 203] | – | + (<20% = +)
46 | – | 204 (GVYDGEEHSV; listed as Homo sapiens) [compound 204] | – | + (<20% = +)
47 | – | 205 (KIVDFSYSV; listed as Homo sapiens) [compound 205] | – | ++ (20%-49% = ++)
